Source: BindingDB's records for patent US12391702 (Bristol-Myers Squibb, 2025)
pIC50: −log10 of the molar value.

Target: T1, Interleukin-1 receptor-associated kinase 4 (Homo sapiens, UniProt Q9NWZ3)
T1 sequence (Q9NWZ3 whole entry): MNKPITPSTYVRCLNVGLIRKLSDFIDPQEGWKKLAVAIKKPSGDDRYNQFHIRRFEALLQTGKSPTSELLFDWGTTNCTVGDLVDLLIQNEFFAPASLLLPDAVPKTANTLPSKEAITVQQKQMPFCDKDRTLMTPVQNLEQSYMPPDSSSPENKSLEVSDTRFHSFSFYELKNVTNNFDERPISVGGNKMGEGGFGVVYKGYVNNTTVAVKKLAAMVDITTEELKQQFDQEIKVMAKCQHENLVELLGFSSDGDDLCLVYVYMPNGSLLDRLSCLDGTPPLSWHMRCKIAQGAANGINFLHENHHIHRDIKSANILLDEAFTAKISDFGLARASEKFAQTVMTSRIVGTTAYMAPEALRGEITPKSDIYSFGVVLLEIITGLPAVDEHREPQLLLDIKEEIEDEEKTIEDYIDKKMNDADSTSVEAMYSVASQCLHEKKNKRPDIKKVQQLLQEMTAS
Assay: IRAK4 Inhibition Assay
Protocol: The assays were performed in U-bottom 384-well plates. The final assay volume was 30 μL prepared from 15 μL additions of enzyme and substrates (fluoresceinated peptide and ATP) and test compounds in assay buffer (20 mM HEPES pH 7.2, 10 mM MgCl2, 0.015% Brij 35 and 4 mM DTT). The reaction was initiated by the combination of IRAK4 with substrates and test compounds. The reaction mixture was incubated at room temperature for 60 min. and terminated by adding 45 μL of 35 mM EDTA to each sample. The reaction mixture was analyzed on the Caliper LABCHIP 3000 (Caliper, Hopkinton, MA) by electrophoretic separation of the fluorescent substrate and phosphorylated product. Inhibition data were calculated by comparison to no enzyme control reactions for 100% inhibition and vehicle-only reactions for 0% inhibition. The final concentrations of reagents in the assays are ATP, 500 μM; FL-IPTSPITTTYFFFKKK peptide 1.5 μM; IRAK4, 0.6 nM; and DMSO, 1.6%.

pIC50: 5.93
SMILES: CC(C)Nc1c(C(=O)NC[C@@H](F)C(C)(C)O)cnc2c1Oc1cc(C#N)ccc1O2 [US12391702, Example 1]
